From patent US20050119301A1, “Treatment of restenosis” (priority 2001, published 2005)
“And” between values parts separate entries of the source, which are not always exact repeats. Equal entries are not always repeated. “Also recorded” adds a separate entry of the source.

Tests used:
rat thoracic aorta = experiment: Contractile curves to noradrenaline in rat isolated aortic rings (Protocol 1); conditions: for dose dependency of the antagonising action on noradrenaline contraction: 0.1 and 1 μg/ml; for antagonising the contractile response to noradrenaline (in words): order of potency at 1 μg/ml; for y max, Noradrenaline + Test compound (B): mean ± SEM; for y max Difference (A − B): noradrenaline alone minus noradrenaline + compound
Procedure: (§1) Male Sprague-Dawley rats (250±50 g) were gassed with 80% CO2 and 20% O2 until killed. The thoracic aorta was excised and quickly placed in ice-cold Krebs modified solution composed of NaCl […], […] 4.7 mM, MgSO4 7H2O 1.17 mM, NaHCO3 25 mM, KH2PO4 1.18 mM, CaCl2 2.5 mM, glucose 11 mM and EDTA 0.03 mM. It was then trimmed of fat and connective tissue and cut into 2-3 mm wide rings. Each ring was mounted on two parallel stainless steel hooks in a single water-jacketed 3 ml organ bath containing modified Krebs solution maintained at 37° C. and bubbled with 95% O2 plus 5% CO2. The lower hook was attached to a movable support leg and the upper hook to an FTO3 force transducer (Grass Scientific Instruments, Mitutoyo, Japan) for isometric recordings. Changes in force were amplified (Quadbridge amplifier, Scientific Concepts Inc., Victoria, Australia) and recorded on a MacLab 8E data acquisition system (Adinstruments Pty Ltd., NSW, Australia) linked to an Apple computer (Apple Computer Inc, Cupertina, Calif.). Rings were set at an initial tension of 2 g and allowed to equilibrate for 30 minutes after which time they were re-set to 2 g tension before the commencement of each experimental protocol.
Full concentration-contractile curves were obtained to noradrenaline (0.1 nM-[…]) in the absence and presence of β-estradiol (1 μg/ml); Cpd. 5 (0.1 and 1 μg/ml); Cpd. 7 (0.1 and 1 μg/ml); Cpd. 8 (0.1 and 1 μg/ml) and Cpd. 12 (1 μg/ml) and the vehicle equi-volume DMSO. Only one compound at any one concentration was tested on any one ring from any one animal.
(§2) Contractile responses are expressed in g tension (mean+standard error of the mean). Dilatory responses are expressed as a percentage of the contractile force generated by the pre-constricting agent used. Individual concentration-response curves for noradrenaline and acetylcholine±the interventions used were fitted to a logistic equation of the form […] where E is the response, M is the maximum response and K is the concentration eliciting 50% of the maximum response (ie neg log EC50).

[1] = a-tocopheroxyl radical attenuating ability (TRAA) assay in micelles; type: biochemical; conditions: for TRAA, HTAC Micelle (positive) / TRAA, SDS Micelle (negative): 10 μM, relative rate constant of a-tocopheroxyl radical decay with/without sample, large = active
Procedure: The a-tocopheroxyl radical attenuating ability (TRAA) assay has been described in detail by Witting et al. (1997). Briefly, one hundred mM stock solutions of cetyltrimethyl ammonium chloride (HTAC) and sodium dodecyl sulphate (SDS) were prepared in phosphate buffer. Micellular dispersions of a-tocopherol were prepared by diluting an ethanolic solution of a-tocopherol (0.2 M) into micelles at a final vitamin concentration of […]. This resulting solution was sonicated for 15 sec at which time it was completely homogenous.
Aliquots of the a-tocopherol-containing micells were placed into the neck of an ESR flat cell […] and placed 0.5 m from a 125 W Osram HQL-Mercury fluorescent bulb used as a UV light source. To increase the light intensity, the frosted casing of the bulb was removed. Samples were irradiated for 3 min, followed by thorough mixing and subsequent transfer of the flat cell to the corresponding temperature-controlled Dewar insert in the ESR cavity, where the sample was allowed to equilibrate to 37° C. This procedure afforded a-tocopheroxyl radical (a-TO) between […] as estimated against a 10 mM TPDI nitroxide standard. ESR spectra were obtained at 9.41 GHz with modulation amplitude 1.0 G, microwave power […], and modulation frequency 12.5 kHz using a Bruker ESP 300 ESR spectrometer fitted with an X-band cavity.
After accumulation of the T=0 min spectrum, the flat cell arrangement containing a-TO was removed from the ESR cavity and the solution was gently coaxed into the neck of the flat cell under positive pressure. The compound of choice was then added to give a final concentration of 10 mM and the treated sample was replaced in the cavity and allowed to equilibrate to standard conditions, and sampling was resumed. The time-dependent decay of ESR signal intensity for a-TO was measured both in the presence and absence of the added co-antioxidant (10 mM) using a sweep time of 20.5 sec, averaging the output from three successive sweeps at each time point, and averaging the results of three separate experiments.
Results are expressed as the relative rate constant of decay of a-tocopheroxyl radicals in the presence of the test sample divided by the relative rate constant of decay of a-tocopheroxyl radicals in the absence of the test sample. TRAA approaching unity is considered to have poor synergistic activity, whereas active compounds show large values because they eliminate the a-tocopheroxyl radicals immediately upon mixing. Ascorbate was used as a positive control.

[2] = tested on: rat isolated aortic rings; experiment: Vasodilatory capacity in noradrenaline pre-constricted aortic rings and mechanism of action (Protocol 2a/2b); conditions: for vasodilatory response: effect of high KCl levels: KCl 40 mM; for vasodilatory response: effect of ODQ: ODQ 10 μM; for vasodilatory response: effect of removal of the endothelium: denuded vs intact endothelium; for vasodilatory response: effect of indomethacin: indomethacin 10 μM; for vasodilatory response: effect of nitro-L-arginine (NOLA): NOLA 10 μM
Procedure: as §1
A full concentration response to noradrenaline was obtained. From this the concentration producing a submaximal contraction of approximately 80% was selected (0.03-0.3 μM). The ring was then constricted with this submaximal concentration and allowed to plateau before full concentration-relaxation curves were obtained to β-estradiol and Cpds. 5, 7, 8 and 12 and the vehicle DMSO (at equi-volume). Only one compound was studied with any one ring from any one animal.
Full relaxation curves were obtained to Cpds. 5, 7, 8 and 12 and β-estradiol in the absence and presence of the endothelium (rings were denuded of endothelium by gentle rotation of the lumen against a rough surface), the nitric oxide synthase inhibitor nitro-L-arginine (NOLA 10 μM; with the exception of Cpd. 8, due to limited supply of the compound), KCl 40 mM (to inhibit endothelium derived hyperpolarising factor), the cyclo-oxygenase inhibitor indomethacin (10 μM) and the soluble guanylate cyclase inhibitor 1H-[1,2,4]oxadiazolo[4,3-a]quinoxalin-1-one (ODQ; 10 μM). Only one compound with only one intervention was tested on any one ring from any one animal.
as §2

Compound	dose dependency of the antagonising action on noradrenaline contraction (rat thoracic aorta)	antagonising the contractile response to noradrenaline (in words) (rat thoracic aorta)	y max, Noradrenaline + Test compound (B) (rat thoracic aorta; test compound 0.1 μg/ml) [g tension]	y max Difference (A − B) (rat thoracic aorta; test compound 0.1 μg/ml) [g tension]	y max, Noradrenaline + Test compound (B) (rat thoracic aorta; test compound 1 μg/ml) [g tension]	y max Difference (A − B) (rat thoracic aorta; test compound 1 μg/ml) [g tension]	TRAA, HTAC Micelle (positive) [1]	TRAA, SDS Micelle (negative) [1]	vasodilatory response: effect of high KCl levels [2]	vasodilatory response: effect of ODQ [2]	vasodilatory response: effect of removal of the endothelium [2]	vasodilatory response: effect of indomethacin [2]	vasodilatory response: effect of nitro-L-arginine (NOLA) [2]	elimination of a-tocopheroxyl radicals (in words) [1]
Oc1ccc(C2COc3cc(O)ccc3C2O)cc1 (stereo not drawn) [Cpd. 8]	dose dependent	active but less potent than β-estradiol; also recorded: the least potent	1.34 ± 1.20	0.56 ± 0.15	0.86 ± 0.31	0.69 ± 0.28	2.37	1.26 and 1.58	inhibited	but not by ODQ	inhibited	potentiated	–	–
O=C1c2ccc(O)cc2OCC1c1ccc(O)cc1 (stereo not drawn) [Cpd. 5]	dose dependent	active but less potent than β-estradiol; also recorded: equipotent but less potent than Cpd. 12	1.50 ± 0.32	0.81 ± 0.25	1.13 ± 0.20	1.02 ± 0.24	5.3 and 5.4	–	inhibited	inhibited	inhibited	did not influence	inhibited	–
Oc1ccc(C2COc3cc(O)ccc3C2O)cc1 (stereo not drawn) [Cpd. 7]	dose dependent	active but less potent than β-estradiol; also recorded: equipotent but less potent than Cpd. 12	1.41 ± 0.13	0.25 ± 0.25	1.26 ± 0.34	1.38 ± 0.27	1.4 ± 0.5	1.9 ± 0.2	inhibited	inhibited	inhibited	did not influence	trend towards inhibition of these responses by NOLA but this was not statistically significant	–
Oc1ccc(C2=Cc3ccc(O)cc3OC2)cc1 [Cpd. 12]	–	comparable to β-estradiol; also recorded: most effective and comparable to 170-estradiol	–	–	0.80 ± 0.36	2.27 ± 0.68	26.77 and 25.70	Almost immediate	inhibited	–	inhibited	–	–	induced high rate of decay and was active at eliminating a-tocopheroxyl radicals
